In patent US6632979B2, “Rodent HER2 tumor model” (Genentech, Inc., priority 2000, dated 2003):
Entries after “also recorded” stand apart in the source; their conditions may differ.

Experiments:
[1] = tested on: HER-5, HER-3081-3-4, HER-3081-3-10 and HER-3081-3-19 cells; test: Mitogen responsiveness of HER2 transgenic cell lines, crystal violet; assay type: cell-based, mouse; details: heregulin 0.005-5 nM or EGF 0.05-50 ng/ml, 4 days, FIG. 11
Experimental: Briefly, cells were detached from a T75 flask with Dissociation Solution (Sigma) and plated in fibronectin coated 96 well plates. Approximately 10,000 cells were plated per well in 0.1 ml of fully supplemented media. […] After 4 days plates were washed twice with PBS (pH 7.5), stained with crystal violet (0.5% in methanol), dried, solubilized and the optical density measured at a wavelength of 540 nm on a plate reader, essentially as described in Sugarman et al. Science 230:943-945 (1985).

[2] = tested on: MMTV-HER2-transgenic tumors transplanted into the mammary fat pad of FVB mice; test: Transplanted MMTV-HER2-transgenic tumor model in FVB mice; assay type: in vivo, mouse
Source text: Two mm3 pieces of MMTV-HER2-transgenic tumors were transplanted into the mammary fat pad of FVB mice.
All animals received five doses.
The tumor was surgically resected under aseptic conditions and minced into small pieces, 2 mm^3, which were then transplanted into the mammary fat pad of wild-type FVB female mice.

[3] = tested on: tumors from the HER2 transgenic cell line HER-3081-3-10; test: Growth of tumors from cell line HER-3081-3-10 in mice; assay type: in vivo, mouse; details: 4D5, 7C2 30 mg/kg intraperitoneally for 4 weeks; taxol 15.6 mg/kg subcutaneously daily for 5 days; tumors 100 mm^3, FIG. 16
Experimental: The efficacy of taxol and anti-HER2 monclonal antibodies 7C2 and 4D5 in preventing tumor growth was assessed (FIG. 16). At day 0, 6-8 week old FVP mice were innoculated under the skin with 2 million tumor cells from cell line HER-3081-3-10. When the tumors reached 100 mm^3 the mice were separated into 5 groups with 9 animals per group. Antibodies 4D5 and 7C2 were given intraperitoneally at 30 mg/kg for 4 weeks. Taxol was given subcutaneously daily for 5 days at 15.6 mg/kg. Tumors were measured during the study at regular intervals.

heregulin was tested, and the “proliferation in response to mitogen” value [1] was “only the HER-5 cell line proliferated; also recorded: mitogens only for cell line HER-5”.

With “RITUXAN®: an unrelated antibody, used as negative control” the “efficacy on tumor size” value ([2]; FIG. 7, unconjugated control antibody) was “no efficacy” and the “effect on tumor growth” value ([2]; FIG. 8, control antibody and control conjugate) was “Neither unconjugated RITUXAN® (control MAb E25) nor RITUXAN®-DM1 had any obvious effect on tumor growth”.

With `CC(=O)O[C@H]1C(=O)[C@@]2(C)[C@H]([C@H](OC(=O)c3ccccc3)[C@]3(O)C[C@H](OC(=O)[C@H](O)[C@@H](NC(=O)c4ccccc4)c4ccccc4)C(C)=C1C3(C)C)[C@]1(OC(C)=O)CO[C@@H]1C[C@@H]2O` [taxol, paclitaxel] the “reduction of tumor growth” value [3] was “more effective than either of the antibodies alone”.
